For data set [1], the system named is 5% DSS colitis. The data set can be described thus: Acute murine 5% DSS colitis model. Format: in vivo. To be noted: for effect on DAI compared to vehicle control: FIG. 5; for inhibition of colon shortening (colon length) day 7 versus vehicle: FIG. 10; for colon pathology (histology score) relative to vehicle: FIG. 12; for colon IL1β level versus DSS vehicle / colon TNFα level versus DSS vehicle / colon IL6 level versus DSS vehicle / reduction of colonic myeloperoxidase (MPO) activity: day 7; for colon IL1β level versus DSS vehicle: FIG. 14(a); for colon TNFα level versus DSS vehicle: FIG. 14(b); for colon IL6 level versus DSS vehicle: FIG. 14(c); for reduction of colonic myeloperoxidase (MPO) activity: FIG. 13; for DAI on the day of autopsy versus vehicle controls: FIG. 9. The source says:
The study is widely used as a model for studying the pathogenesis of UC and also for screening new therapeutic interventions for the treatment of UC.
In these studies, an acute colitis model was used, with 5% DSS administered in the drinking water of BALB/c mice. This dosage regime induces severe acute colitis, by days 7-8 mice had overt rectal bleeding and marked weight loss; unless sacrificed beforehand, all mice would have died by days 10-12.
Specific Pathogen-Free BALB/c mice, 6-8 weeks of age, were obtained from a commercial supplier (Harlan UK). Mice were fed irradiated diet and housed in individually ventilated cages (Tecniplast UK) under positive pressure.
DSS (5%) was dissolved in drinking water. Compounds were administered orally at a dose of 10 mg/kg or 30 mg/kg on days 0-7, and mice were culled on day 8 or day 9, depending on the severity of the disease. The mice were checked each day for morbidity and the weight of individual mice was recorded. Induction of colitis was determined upon autopsy, length of colon and histology. Colons were recovered and stored at −20° C. for immunological analysis. All of the compounds and experimental groups are randomly alphabetically labelled. Throughout experiments all data recording was performed in a blind manner. The codes on boxes/groups were not broken until after the data was analysed i.e. boxes labelled A, B, C etc were identified as untreated, DSS-treated, or DSS+compound-treated.
To quantify the extent of colitis, a disease activity index (DAI) was determined based on weight loss, faecal blood and stool consistency. A score was given for each parameter, with the sum of the scores used as the DAI. For each treatment group n=8.
All compounds were prepared for oral gavage (0.1 mL per os (p.o.) per 10 g body weight) as a suspension in 0.5% carboxymethyl cellulose/2% Tween 80, at a dose of 3-30 mg/Kg.

The nature of data set [2]: Solubility in water and buffers. The data set is classed as physicochemical. The settings on record: for aqueous solubility (in words): free acid enantiomers. As for the experimental part:
The sodium salt, potassium salt, calcium salt, α-methylbenzylamine salt and N-Methyl-(D)-Glucamine salt were synthesised.
The solubility of the four compounds was determined: […]

Data set [3] in a line: Partition coefficient by HPLC method (reverse phase C18). The data set is classed as physicochemical. The settings on record: for Acid Log10 POW: acidic pH; for Basic Log10 POW: alkaline pH; for Neutral Log10 POW: neutral pH.
Data set [4] has as its system chronic colitis in IL10^--/-- mice. Nature of the data set: Chronic IL10-/- colitis model. Format: in vivo, BALB/c strain mice. The settings on record: 300 mg/kg/week oral, MWF. As for the experimental part: FIG. 15 Is a grph showing weight loss in IL10^--/--mice treated with vehicle or compound 6. Mice were administered compound 6 (300 mg/kg/week) or vehicle orally on a Monday/Wednesday/Friday (MWF) dosing schedule. Mice were ˜4 weeks of age at start of experiment and were treated for 9 weeks. Mice were weighed weekly and data are presented as Mean±SEM from 9-12 mice per group. Mice were monitored for overt disease, rectal prolapse, and moribund animals were humanely killed;
Mice with a deletion in the IL10^--/-- gene spontaneously develop chronic colitis, with the age of onset and the severity of the disease being dependent on background mouse strain and the conditions in which the animals are housed. The onset of colitis in IL10^--/-- mice housed under the conditions used in this study was also strain dependent, with an earlier onset and greater severity, in terms of mortality, in BALB/c strain mice relative to C57BL/6 strain animals. In this experiment, animals received oral treatment on a MWF regime over 9 weeks. Initially, both groups of mice progressively gain weight (FIG. 15). […] By week 9 animals had marked weight loss, with one moribund animal humanely killed on day 60 in each group. As other mice were losing weight and developing clinical symptoms of disease, both groups were culled at week 9 (day 63) and analysed. […] Serum was recovered from mice and Serum Amyloid A (SAA) and was analysed as a marker for severity of colitis.

The mark [5] stands for this setting: 10 mg/kg daily for 7 days, vehicle 9.3±0.51, FIG. 6.
The mark [6] stands for this setting: 30 mg/kg p.o. daily for 7 days, vehicle controls 9.0+0.53, FIG. 4.

Like-named read-outs stand apart in the source and are kept apart here.

As usually defined, the solubility is how much of the substance goes into solution per volume.

As for `O=C(O)c1ccc(C[C@@]2(C3=Cc4ccccc4C3)Cc3ccccc3[C@H]2O)cc1` (single isomer, unassigned) [Compound 2], the results for the “disease activity index (DAI) at day 7” value in data set [1] (setting [5]) and in data set [1] (setting [6]) were 2.1±0.7 and 2.5±0.71, respectively. In addition, the “activity in 5% DSS murine colitis model (conclusion)” value in data set [1] (30 mg/kg p.o. daily for 7 days) was “highly active”. Moreover, in data set [2], the “aqueous solubility (in words)” value was “limited aqueous solubility”.
As for `O=C(O)c1ccc(C[C@]2(C3=Cc4ccccc4C3)Cc3ccccc3[C@@H]2O)cc1` (single isomer, unassigned) [Compound 3], in data set [1] (30 mg/kg p.o. daily for 7 days), the “activity in 5% DSS murine colitis model (conclusion)” value is reported as “minimal activity”. Besides, the “disease activity index (DAI) at day 7” value in data set [1] (setting [6]) is listed as 5.3±0.6. Also, the “DAI versus vehicle at day 6” value in data set [1] (30 mg/kg p.o. daily, FIG. 3) was “no statistical (P>0.05) difference”.
Regarding `O=C(O)c1ccc(C[C@@]2(C3=Cc4ccccc4C3)Cc3ccccc3[C@@H]2O)cc1` [Compound 4, 4-(((1R,2S)-1-hydroxy-2,3-dihydro-1H,1′H-2,2′-biinden-2-yl)methyl)benzoic acid], the “activity in 5% DSS murine colitis model (conclusion)” value in data set [1] (30 mg/kg p.o. daily for 7 days) is “almost devoid of activity”. Also, the “DAI versus vehicle at any time point” value in data set [1] (30 mg/kg p.o. daily for 7 days, FIG. 3) is “without activity”.
In the case of `O=C(O)c1ccc(C[C@]2(C3=Cc4ccccc4C3)Cc3ccccc3[C@H]2O)cc1` [Compound 5, 4-(((1S,2R)-1-hydroxy-2,3-dihydro-1H,1′H-2,2′-biinden-2-yl)methyl)benzoic acid], in data set [1] (10 mg/kg daily for 7 days), the “effect on DAI compared to vehicle control” value was “no significant (P>0.05) effect”. In addition, the “activity in 5% DSS murine colitis model (conclusion)” value in data set [1] (30 mg/kg p.o. daily for 7 days) is listed as “highly active”. For the same compound, the “disease activity index (DAI) at day 7” value in data set [1] (setting [6]) amounted to 3.2±0.73. Moreover, in data set [3], the “Acid Log10 POW” value is listed as 3.9, the “Basic Log10 POW” value came out at 3.7 and the “Neutral Log10 POW” value stood at 3.7. For the same compound, the “aqueous solubility (in words)” value in data set [2] was “limited aqueous solubility”.
Consider `O=C(O)c1ccc(C[C@@]2(C3=Cc4ccccc4C3)Cc3ccccc3[C@H]2O)cc1` [Compound 6, 6-(Methylamino)hexane-1,2,3,4,5-pentanol 4-(((1S,2S)-1-hydroxy-2,3-dihydro-1H,1′H-2,2′-biinden-2-yl)methyl)benzoate], for which the “inhibition of colon shortening (colon length) day 7 versus vehicle” value in data set [1] (3 mg/kg) is reported as “did not have a significant effect”; in data set [1] (10 mg/kg) it was “did have a significant effect”; in data set [1] (30 mg/kg), “did have a significant effect”. Further, the “colon pathology (histology score) relative to vehicle” value in data set [1] (10 mg/Kg, P<0.01) is given as “highly statistically significant reduction”; in data set [1] (30 mg/Kg, P<0.01), “highly statistically significant reduction”. The “disease activity index (DAI) at day 7” value in data set [1] (setting [5]) was 3.3±0.52. Moreover, the “therapeutic efficacy in the DSS model relative to prednisolone” value in data set [1] (30 mg/Kg versus prednisolone 5 mg/Kg) was “comparable, or better, efficacy relative to prednisolone”. Besides, the “colon length day 7 compared with Prednisolone” value in data set [1] (30 mg/kg versus Prednisolone 5 mg/kg, P<0.05) is “significantly better than Prednisolone”. In data set [1] (30 mg/kg), the “colon IL1β level versus DSS vehicle” value is “significant (P<0.05, 30 mg/kg) and dose-dependant reduction”. In addition, the “colon TNFα level versus DSS vehicle” value in data set [1] (30 mg/kg) is “significant (P<0.05, 30 mg/kg) and dose-dependant reduction”. In data set [1] (30 mg/kg), the “colon IL6 level versus DSS vehicle” value was “significant (P<0.05, 30 mg/kg) and dose-dependant reduction”. For the same compound, the “reduction of colonic myeloperoxidase (MPO) activity” value in data set [1] (30 mg/kg, P<0.05) is given as 63%. Also, the “severity of colitis, multiple parameters of disease” value in data set [1] (3, 10 and 30 mg/Kg oral daily for 7 days, dose-dependent) is listed as “ameliorated the severity of colitis”. Further, the “DAI on the day of autopsy versus vehicle controls” value in data set [1] (3-30 mg/kg, each dose level) is “significantly (P<0.05−P<0.01) lower DAI”. Further, in data set [1] (oral daily for 7 days, 3, 10 and 30 mg/Kg), the “overt reactions in mice” value was “no overt reactions”. Also, the “survival over 9 weeks by Kaplan-Meier analysis versus vehicle” value in data set [4] is given as “no statistical difference in survival”. In addition, the mortalities in data set [4] (9 weeks, vehicle 25%) is reported as 9.2%. In addition, the weight gain result in data set [4] (9 weeks, vehicle stopped gaining from week 5, FIG. 15) is “maintained weight gain until week 8”. For the same compound, the “Serum Amyloid A (SAA) levels relative to vehicle” value in data set [4] (week 9, FIG. 16) is “significantly (P<0.05; Student's t-test) reduced SAA levels”. In addition, in data set [4] (week 9, P<0.05, FIG. 18), the “extent of colon pathology (histology score of distal colon) relative to vehicle” value is “significantly reduced”. The “Acid Log10 POW” value in data set [3] is recorded as 2.6. For the same compound, the “Basic Log10 POW” value in data set [3] worked out at 4.3. In addition, in data set [3], the “Neutral Log10 POW” value amounted to 3.5. For the same compound, the solubility in data set [2] (Milli-RO water, * = estimated value, read-out: solubility Milli-RO H20) is greater than 60 mg/mL; in data set [2] (aqueous buffer, pH 7.0 buffer, * = estimated value, read-out: solubility pH 7.0 Buffer), greater than 60 mg/mL; in data set [2] (aqueous buffer, pH 9.0 buffer, * = estimated value, read-out: solubility pH 9.0 Buffer) it was greater than 3 mg/mL.
As for `CNCC(O)C(O)C(O)C(O)CO.O=C(O)c1ccc(C[C@]2(C3=Cc4ccccc4C3)Cc3ccccc3[C@H]2O)cc1` [Compound 7, 6-(Methylamino)hexane-1,2,3,4,5-pentanol 4-(((1S,2R)-1-hydroxy-2,3-dihydro-1H,1′H-2,2′-biinden-2-yl)methyl)benzoate], in data set [1] (10 mg/kg daily for 7 days), the “effect on DAI compared to vehicle control” value is recorded as “no significant (P>0.05) effect”. Further, in data set [3], the “Acid Log10 POW” value is listed as 3.8, the “Basic Log10 POW” value was found to be 3.5 and the “Neutral Log10 POW” value was determined as 3.5. Also, in data set [2] (Milli-RO water, * = estimated value, listed as Compound 5 N-Methyl-D-Glucamine salt), the “solubility Milli-RO H20” value was >60,000* μg/mL. For the same compound, in data set [2] (pH 4.0 buffer), the “solubility pH 4.0 Buffer” value stood at 0.14 μg/mL. Moreover, the “solubility pH 7.0 Buffer” value in data set [2] (pH 7.0 buffer, * = estimated value, listed as Compound 5 N-Methyl-D-Glucamine salt) is recorded as >60,000* μg/mL. The “solubility pH 9.0 Buffer” value in data set [2] (pH 9.0 buffer, * = estimated value, listed as Compound 5 N-Methyl-D-Glucamine salt) is recorded as >60,000* μg/mL.
As to `C[C@]12C=CC(=O)C=C1CC[C@@H]1[C@@H]2[C@@H](O)C[C@@]2(C)[C@H]1CC[C@]2(O)C(=O)CO` [Prednisolone, reference compound], the “colon pathology (histology score) relative to vehicle” value in data set [1] (5 mg/Kg) is listed as “no significant improvement”. In data set [1] (5 mg/kg), the “colon IL1β level versus DSS vehicle” value is “reduced (p<0.05)”, the “colon TNFα level versus DSS vehicle” value is given as “reduced (p<0.05)”, the “colon IL6 level versus DSS vehicle” value is reported as “reduced (p<0.05)” and the “DAI on the day of autopsy versus vehicle controls” value was “reduced DAI scores”. Further, the “inhibition of colon shortening (colon length) day 7 versus vehicle” value in data set [1] (5 mg/kg) was “did have a significant effect”. In data set [1] (5 mg/kg, P<0.05), the “reduction of colonic myeloperoxidase (MPO) activity” value is on record as 54%.

Source of the values: patent US9586885B2, “Compounds for use in the treatment of inflammatory bowel disease” (Venantius Limited, priority 2011, dated 2017).
